Results as given in BindingDB's records for patent US20240279215 (Cytokinetics, Incorporated, 2024).

target: Nicotinamide phosphoribosyltransferase (Homo sapiens, UniProt P43490); assay: NMN Fluorescence Biochemical Assay
Protocol: Compounds described herein were assayed for their ability to stimulate the synthesis of nicotinamide mononucleotide (NMN) by the enzyme NAMPT. The human recombinant enzyme assay measures the activation of the enzyme activity by compounds using recombinant enzyme and substrates in a buffered cell-free system. The assay conditions closely mimic cellular environments. Dose responses were measured using an assay to detect the formation of nicotinamide mono-nucleotide. All experiments were performed in the 384-well format. Generally, 0.5 μL of DMSO containing varying concentrations of the test compound was mixed with 10 μL of the enzyme reagent solution. Enzyme reactions were initiated with the addition of […] containing the substrates. The final assay conditions were as follows: 6 nM human NAMPT, 2.5 mM ATP, 20 μM PRPP and 150 μM nicotinamide in 50 mM HEPES, pH 7.2, 1 mM DTT, 1 mM CHAPS 50 mM NaCl, 100 mM MgCl2. Following an incubation of 60 min at ambient temperature, 10 μL of 20% acetophenone in DMSO was added, followed by 10 μL of 2 M KOH and 40 μL of formic acid. The plates were read for fluorescence (Excitation/Emission=355 nm/460 nm) using an EnVision plate reader after 40 mins of incubation at ambient temperature.

Nicotinamide phosphoribosyltransferase, sequence (P43490 whole entry): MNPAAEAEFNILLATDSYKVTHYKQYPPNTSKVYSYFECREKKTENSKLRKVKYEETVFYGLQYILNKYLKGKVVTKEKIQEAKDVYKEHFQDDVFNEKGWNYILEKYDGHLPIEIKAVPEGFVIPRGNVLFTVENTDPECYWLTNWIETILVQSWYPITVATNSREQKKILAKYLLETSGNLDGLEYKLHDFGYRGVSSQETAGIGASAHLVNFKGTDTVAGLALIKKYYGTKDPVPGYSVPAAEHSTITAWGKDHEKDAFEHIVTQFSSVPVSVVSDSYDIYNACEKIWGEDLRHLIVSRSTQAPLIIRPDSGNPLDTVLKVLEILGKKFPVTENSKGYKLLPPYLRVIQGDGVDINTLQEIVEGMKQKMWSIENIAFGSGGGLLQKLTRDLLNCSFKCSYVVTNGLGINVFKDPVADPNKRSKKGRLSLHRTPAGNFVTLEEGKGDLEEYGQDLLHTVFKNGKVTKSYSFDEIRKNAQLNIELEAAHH

SMILES | EC50 [µM]
O=C(Nc1ccc(CC2CCN(CC(F)F)CC2)cc1)OCc1ccncc1 [US20240279215, Compound 52] | 5.38
O=C(Nc1ccc(CN2C(=O)CC[C@@H]2c2cccnc2)cc1)OCc1ccc(Cl)cc1 [US20240279215, Compound 249] | 15.8
CN(Cc1ccccc1)S(=O)(=O)c1ccc(NC(=O)OCc2ccc(Cl)cc2)cc1 [US20240279215, Compound 335] | 7.94
CN(C1CCOC1)S(=O)(=O)c1ccc(NC(=O)OCc2ccc(Cl)cc2)cc1 (centres undefined) [US20240279215, Compound 342] | 11.5
